Reference: the kinase profiling compilation of Christmann-Franck et al. (2016)

Columns and labels:
Assay in all cases: KINOMEscan competition binding
Conditions in all cases: compound 10.0 µM
ACVR2B (human) = ACVR2B (human) (UniProt Q13705)
ALK (human) = ALK (human) (UniProt Q9UM73)
BMPR1B (human) = BMPR1B (human) (UniProt O00238)
CAMK1G (human) = CAMK1G (human) (UniProt Q96NX5)
CAMK2G (human) = CAMK2G (human) (UniProt Q13555)
CDC42BPA (human) = CDC42BPA (human) (UniProt Q5VT25)
CDK3 (human) = CDK3 (human) (UniProt Q00526)
CDK4 CCND3 (human) = CDK4 CCND3 (human) (UniProt P11802+P30281)
CHUK (human) = CHUK (human) (UniProt O15111)
CSNK1G2 (human) = CSNK1G2 (human) (UniProt P78368)
DDR1 (human) = DDR1 (human) (UniProt Q08345)
DMPK (human) = DMPK (human) (UniProt Q09013)
DYRK1B (human) = DYRK1B (human) (UniProt Q9Y463)
EIF2AK1 (human) = EIF2AK1 (human) (UniProt Q9BQI3)
EPHA6 (human) = EPHA6 (human) (UniProt Q9UF33)
ERBB3 (human) = ERBB3 (human) (UniProt P21860)
FER (human) = FER (human) (UniProt P16591)
LTK (human) = LTK (human) (UniProt P29376)
MAP2K6 (human) = MAP2K6 (human) (UniProt P52564)
MAPK3 (human) = MAPK3 (human) (UniProt P27361)
MKNK2 (human) = MKNK2 (human) (UniProt Q9HBH9)
MTOR (human) = MTOR (human) (UniProt P42345)
NEK11 (human) = NEK11 (human) (UniProt Q8NG66)
NEK3 (human) = NEK3 (human) (UniProt P51956)
NEK7 (human) = NEK7 (human) (UniProt Q8TDX7)
NUAK2 (human) = NUAK2 (human) (UniProt Q9H093)
PAK3 (human) = PAK3 (human) (UniProt O75914)
PAK4 (human) = PAK4 (human) (UniProt O96013)
PHKG2 (human) = PHKG2 (human) (UniProt P15735)
PIP5K1C (human) = PIP5K1C (human) (UniProt O60331)
PRKG2 (human) = PRKG2 (human) (UniProt Q13237)
RPS6KA2 KD1 (human) = RPS6KA2 KD1 (human) (UniProt Q15349)
RPS6KA6 KD1 (human) = RPS6KA6 KD1 (human) (UniProt Q9UK32)
SIK3 (human) = SIK3 (human) (UniProt Q9Y2K2)
STK25 (human) = STK25 (human) (UniProt O00506)
STK39 (human) = STK39 (human) (UniProt Q9UEW8)
SYK (human) = SYK (human) (UniProt P43405)
TLK2 (human) = TLK2 (human) (UniProt Q86UE8)
TNNI3K (human) = TNNI3K (human) (UniProt Q59H18)
ULK2 (human) = ULK2 (human) (UniProt Q8IYT8)

Sequence of BMPR1B (human) (O00238 whole entry, looked up): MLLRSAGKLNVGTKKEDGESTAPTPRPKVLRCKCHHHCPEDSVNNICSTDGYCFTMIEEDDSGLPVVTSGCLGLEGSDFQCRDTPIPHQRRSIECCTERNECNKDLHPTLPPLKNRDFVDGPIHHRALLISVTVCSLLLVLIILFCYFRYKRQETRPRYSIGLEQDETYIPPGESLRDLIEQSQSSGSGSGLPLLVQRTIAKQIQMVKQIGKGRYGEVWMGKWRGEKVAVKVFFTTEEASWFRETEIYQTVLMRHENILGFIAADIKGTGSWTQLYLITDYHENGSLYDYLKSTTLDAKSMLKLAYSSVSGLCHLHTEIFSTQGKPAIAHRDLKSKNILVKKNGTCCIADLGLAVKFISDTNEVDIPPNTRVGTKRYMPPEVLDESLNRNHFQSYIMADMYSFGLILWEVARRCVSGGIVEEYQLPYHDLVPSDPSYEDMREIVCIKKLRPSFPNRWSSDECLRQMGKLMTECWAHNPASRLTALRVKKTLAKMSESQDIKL
Sequence of SIK3 (human) (Q9Y2K2 whole entry, looked up): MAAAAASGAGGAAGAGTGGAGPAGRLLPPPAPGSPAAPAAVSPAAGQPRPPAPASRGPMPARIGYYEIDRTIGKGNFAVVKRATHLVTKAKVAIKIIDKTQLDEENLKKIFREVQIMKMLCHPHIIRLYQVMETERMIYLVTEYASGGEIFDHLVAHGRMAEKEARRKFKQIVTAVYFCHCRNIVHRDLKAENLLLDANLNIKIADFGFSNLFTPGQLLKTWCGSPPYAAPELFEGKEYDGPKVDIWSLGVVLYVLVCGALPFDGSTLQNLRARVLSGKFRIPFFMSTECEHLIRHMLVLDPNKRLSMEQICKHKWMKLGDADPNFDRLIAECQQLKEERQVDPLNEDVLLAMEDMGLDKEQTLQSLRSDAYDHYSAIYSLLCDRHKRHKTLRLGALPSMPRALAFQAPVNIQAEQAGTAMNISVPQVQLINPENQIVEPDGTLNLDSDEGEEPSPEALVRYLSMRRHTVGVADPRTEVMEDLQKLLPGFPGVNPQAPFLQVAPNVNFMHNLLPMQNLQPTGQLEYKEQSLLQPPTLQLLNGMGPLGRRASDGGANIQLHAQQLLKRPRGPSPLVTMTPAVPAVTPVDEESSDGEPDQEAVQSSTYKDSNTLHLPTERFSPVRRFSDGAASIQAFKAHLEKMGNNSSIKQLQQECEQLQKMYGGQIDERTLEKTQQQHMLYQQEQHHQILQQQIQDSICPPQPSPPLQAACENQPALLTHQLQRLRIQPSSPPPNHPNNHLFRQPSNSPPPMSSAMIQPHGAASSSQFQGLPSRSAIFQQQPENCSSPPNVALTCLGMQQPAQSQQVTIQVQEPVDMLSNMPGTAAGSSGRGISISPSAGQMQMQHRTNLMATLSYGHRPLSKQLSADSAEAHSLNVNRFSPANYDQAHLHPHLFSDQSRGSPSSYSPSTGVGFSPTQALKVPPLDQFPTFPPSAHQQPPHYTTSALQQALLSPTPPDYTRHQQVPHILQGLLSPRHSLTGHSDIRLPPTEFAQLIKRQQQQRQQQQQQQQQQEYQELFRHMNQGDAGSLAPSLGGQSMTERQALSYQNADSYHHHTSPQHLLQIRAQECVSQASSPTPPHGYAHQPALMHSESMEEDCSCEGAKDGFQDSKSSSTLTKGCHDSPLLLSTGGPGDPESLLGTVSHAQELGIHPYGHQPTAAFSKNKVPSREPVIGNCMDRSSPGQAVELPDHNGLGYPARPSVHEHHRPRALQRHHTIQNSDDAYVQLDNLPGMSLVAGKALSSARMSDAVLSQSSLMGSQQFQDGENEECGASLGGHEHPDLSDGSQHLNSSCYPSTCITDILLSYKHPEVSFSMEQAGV
Sequence of ERBB3 (human) (P21860 whole entry, looked up): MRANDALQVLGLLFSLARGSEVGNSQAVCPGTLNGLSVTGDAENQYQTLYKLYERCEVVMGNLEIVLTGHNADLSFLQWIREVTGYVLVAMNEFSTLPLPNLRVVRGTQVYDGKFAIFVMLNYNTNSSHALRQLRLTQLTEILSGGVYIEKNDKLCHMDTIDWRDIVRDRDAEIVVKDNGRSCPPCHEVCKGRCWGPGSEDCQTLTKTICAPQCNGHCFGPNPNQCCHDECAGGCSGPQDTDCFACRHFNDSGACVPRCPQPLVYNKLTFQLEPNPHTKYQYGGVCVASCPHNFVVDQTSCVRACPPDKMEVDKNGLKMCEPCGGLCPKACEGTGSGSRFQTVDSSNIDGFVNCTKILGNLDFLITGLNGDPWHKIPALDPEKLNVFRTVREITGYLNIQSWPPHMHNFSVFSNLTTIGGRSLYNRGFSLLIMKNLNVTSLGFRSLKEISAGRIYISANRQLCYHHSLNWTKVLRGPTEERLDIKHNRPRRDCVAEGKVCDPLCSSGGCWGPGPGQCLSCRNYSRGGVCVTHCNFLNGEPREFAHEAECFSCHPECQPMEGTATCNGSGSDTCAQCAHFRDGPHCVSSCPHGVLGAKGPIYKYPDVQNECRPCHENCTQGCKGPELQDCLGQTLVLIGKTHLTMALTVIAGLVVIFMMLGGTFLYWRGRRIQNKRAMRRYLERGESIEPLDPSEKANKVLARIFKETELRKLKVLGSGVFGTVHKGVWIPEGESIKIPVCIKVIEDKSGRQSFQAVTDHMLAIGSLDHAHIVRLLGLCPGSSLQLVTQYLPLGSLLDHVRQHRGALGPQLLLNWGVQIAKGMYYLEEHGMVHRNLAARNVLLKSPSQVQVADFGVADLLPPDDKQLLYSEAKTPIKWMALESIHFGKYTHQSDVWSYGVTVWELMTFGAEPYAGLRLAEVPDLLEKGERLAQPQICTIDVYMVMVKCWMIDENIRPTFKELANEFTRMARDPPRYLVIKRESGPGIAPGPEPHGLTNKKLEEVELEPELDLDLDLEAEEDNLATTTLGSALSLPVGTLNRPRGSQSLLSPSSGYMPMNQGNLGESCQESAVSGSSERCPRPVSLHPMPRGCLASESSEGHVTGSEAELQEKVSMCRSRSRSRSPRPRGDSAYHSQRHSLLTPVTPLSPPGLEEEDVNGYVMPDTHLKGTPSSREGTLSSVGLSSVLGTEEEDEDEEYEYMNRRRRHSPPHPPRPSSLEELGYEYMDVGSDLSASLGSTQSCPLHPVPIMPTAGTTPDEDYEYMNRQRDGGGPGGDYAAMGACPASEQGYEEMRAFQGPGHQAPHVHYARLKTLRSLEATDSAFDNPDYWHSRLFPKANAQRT
Sequence of NEK3 (human) (P51956 whole entry, looked up): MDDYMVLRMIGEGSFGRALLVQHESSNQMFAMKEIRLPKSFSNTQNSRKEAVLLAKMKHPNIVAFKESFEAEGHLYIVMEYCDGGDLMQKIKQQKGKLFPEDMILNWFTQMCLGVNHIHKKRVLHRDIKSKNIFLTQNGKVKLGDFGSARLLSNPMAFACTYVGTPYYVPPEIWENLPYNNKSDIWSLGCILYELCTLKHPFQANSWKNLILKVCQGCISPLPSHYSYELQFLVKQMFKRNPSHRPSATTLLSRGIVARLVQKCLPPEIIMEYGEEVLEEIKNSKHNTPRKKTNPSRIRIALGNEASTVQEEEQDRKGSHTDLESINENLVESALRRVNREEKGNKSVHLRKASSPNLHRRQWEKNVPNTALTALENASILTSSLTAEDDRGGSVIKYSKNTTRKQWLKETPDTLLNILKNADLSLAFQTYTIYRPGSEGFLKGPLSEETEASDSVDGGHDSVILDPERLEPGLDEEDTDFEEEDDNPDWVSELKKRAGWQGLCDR
Sequence of DDR1 (human) (Q08345 whole entry, looked up): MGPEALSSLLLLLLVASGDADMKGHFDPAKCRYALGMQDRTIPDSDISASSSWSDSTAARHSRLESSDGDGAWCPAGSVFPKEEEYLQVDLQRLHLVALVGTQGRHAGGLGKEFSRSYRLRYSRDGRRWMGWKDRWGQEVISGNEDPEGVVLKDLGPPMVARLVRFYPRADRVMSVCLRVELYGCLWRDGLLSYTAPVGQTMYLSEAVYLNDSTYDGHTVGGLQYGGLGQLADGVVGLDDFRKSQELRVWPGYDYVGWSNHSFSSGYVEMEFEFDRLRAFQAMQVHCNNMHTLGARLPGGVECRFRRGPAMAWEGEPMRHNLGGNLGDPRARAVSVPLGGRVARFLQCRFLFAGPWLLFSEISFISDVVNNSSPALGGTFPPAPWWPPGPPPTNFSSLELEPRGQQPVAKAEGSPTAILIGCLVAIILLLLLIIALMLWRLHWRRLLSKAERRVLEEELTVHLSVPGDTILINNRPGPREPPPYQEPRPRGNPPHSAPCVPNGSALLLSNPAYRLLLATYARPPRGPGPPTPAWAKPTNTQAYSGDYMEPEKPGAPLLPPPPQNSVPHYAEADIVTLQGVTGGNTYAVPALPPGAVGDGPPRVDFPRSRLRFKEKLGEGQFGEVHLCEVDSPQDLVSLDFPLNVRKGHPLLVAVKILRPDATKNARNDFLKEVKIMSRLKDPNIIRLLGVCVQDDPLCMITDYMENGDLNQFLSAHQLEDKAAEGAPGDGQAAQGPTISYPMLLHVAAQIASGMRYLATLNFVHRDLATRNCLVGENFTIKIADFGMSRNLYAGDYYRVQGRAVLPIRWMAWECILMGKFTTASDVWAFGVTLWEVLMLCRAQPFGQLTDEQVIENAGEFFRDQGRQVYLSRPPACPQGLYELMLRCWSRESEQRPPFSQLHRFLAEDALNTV
Sequence of MAP2K6 (human) (P52564 whole entry, looked up): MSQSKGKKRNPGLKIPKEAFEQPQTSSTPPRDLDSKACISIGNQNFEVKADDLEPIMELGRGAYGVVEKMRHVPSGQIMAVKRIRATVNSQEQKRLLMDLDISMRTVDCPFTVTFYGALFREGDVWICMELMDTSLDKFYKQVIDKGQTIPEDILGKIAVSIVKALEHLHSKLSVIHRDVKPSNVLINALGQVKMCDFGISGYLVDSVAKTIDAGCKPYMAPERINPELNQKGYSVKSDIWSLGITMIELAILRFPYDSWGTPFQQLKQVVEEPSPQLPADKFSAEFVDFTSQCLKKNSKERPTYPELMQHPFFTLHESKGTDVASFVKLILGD

Row | Compound | kinase still bound, per cent of control (ACVR2B (human)) [%] | kinase still bound, per cent of control (ALK (human)) [%] | kinase still bound, per cent of control (BMPR1B (human)) [%] | kinase still bound, per cent of control (CAMK1G (human)) [%] | kinase still bound, per cent of control (CAMK2G (human)) [%] | kinase still bound, per cent of control (CDC42BPA (human)) [%] | kinase still bound, per cent of control (CDK3 (human)) [%] | kinase still bound, per cent of control (CDK4 CCND3 (human)) [%] | kinase still bound, per cent of control (CHUK (human)) [%] | kinase still bound, per cent of control (CSNK1G2 (human)) [%] | kinase still bound, per cent of control (DDR1 (human)) [%] | kinase still bound, per cent of control (DMPK (human)) [%] | kinase still bound, per cent of control (DYRK1B (human)) [%] | kinase still bound, per cent of control (EIF2AK1 (human)) [%] | kinase still bound, per cent of control (EPHA6 (human)) [%] | kinase still bound, per cent of control (ERBB3 (human)) [%] | kinase still bound, per cent of control (FER (human)) [%] | kinase still bound, per cent of control (LTK (human)) [%] | kinase still bound, per cent of control (MAP2K6 (human)) [%] | kinase still bound, per cent of control (MAPK3 (human)) [%] | other results
1 | N#Cc1cc(-c2ccnc(Nc3ccc(-n4cnc(-c5cccnc5)n4)cc3)n2)cc(N2CCOCC2)c1 | 49 | 100 | 28 | 48 | 32 | 68 | 45 | 12 | 55 | 72 | 100 | 85 | 10 | 100 | 72 | 69 | 99 | 77 | 41 | 100 | kinase still bound, per cent of control (MKNK2 (human)): 34%; kinase still bound, per cent of control (MTOR (human)): 100%; kinase still bound, per cent of control (NEK11 (human)): 100%; kinase still bound, per cent of control (NEK3 (human)): 0.75%; kinase still bound, per cent of control (NEK7 (human)): 45%; kinase still bound, per cent of control (NUAK2 (human)): 57%; kinase still bound, per cent of control (PAK3 (human)): 100%; kinase still bound, per cent of control (PAK4 (human)): 31%; kinase still bound, per cent of control (PHKG2 (human)): 81%; kinase still bound, per cent of control (PIP5K1C (human)): 100%; kinase still bound, per cent of control (PRKG2 (human)): 74%; kinase still bound, per cent of control (RPS6KA2 KD1 (human)): 73%; kinase still bound, per cent of control (RPS6KA6 KD1 (human)): 60%; kinase still bound, per cent of control (SIK3 (human)): 100%; kinase still bound, per cent of control (STK25 (human)): 64%; kinase still bound, per cent of control (STK39 (human)): 100%; kinase still bound, per cent of control (SYK (human)): 25%; kinase still bound, per cent of control (TLK2 (human)): 65%; kinase still bound, per cent of control (TNNI3K (human)): 80%; kinase still bound, per cent of control (ULK2 (human)): 90%
2 | CNC(=O)Nc1ccc(-c2nc(N3CC4CCC(C3)O4)c3cnn(C4CCC5(CC4)OCCO5)c3n2)cc1 | 77 | 42 | 83 | 100 | 100 | 100 | 99 | 92 | 100 | 95 | 66 | 83 | 100 | 100 | 98 | 100 | 100 | 68 | 95 | 97 | kinase still bound, per cent of control (MKNK2 (human)): 87%; kinase still bound, per cent of control (MTOR (human)): 5.7%; kinase still bound, per cent of control (NEK11 (human)): 99%; kinase still bound, per cent of control (NEK3 (human)): 100%; kinase still bound, per cent of control (NEK7 (human)): 100%; kinase still bound, per cent of control (NUAK2 (human)): 100%; kinase still bound, per cent of control (PAK3 (human)): 99%; kinase still bound, per cent of control (PAK4 (human)): 100%; kinase still bound, per cent of control (PHKG2 (human)): 96%; kinase still bound, per cent of control (PIP5K1C (human)): 100%; kinase still bound, per cent of control (PRKG2 (human)): 88%; kinase still bound, per cent of control (RPS6KA2 KD1 (human)): 100%; kinase still bound, per cent of control (RPS6KA6 KD1 (human)): 87%; kinase still bound, per cent of control (SIK3 (human)): 35%; kinase still bound, per cent of control (STK25 (human)): 91%; kinase still bound, per cent of control (STK39 (human)): 100%; kinase still bound, per cent of control (SYK (human)): 100%; kinase still bound, per cent of control (TLK2 (human)): 100%; kinase still bound, per cent of control (TNNI3K (human)): 59%; kinase still bound, per cent of control (ULK2 (human)): 90%
3 | O=c1[nH]c2ccccc2n1C1CCN(Cc2ccc(-c3nc4cc5[nH]cnc5cc4nc3-c3ccccc3)cc2)CC1 | 100 | 37 | 88 | 90 | 100 | 85 | 100 | 100 | 75 | 59 | 86 | 98 | 88 | 87 | 98 | 100 | 83 | 56 | 100 | 100 | kinase still bound, per cent of control (MKNK2 (human)): 81%; kinase still bound, per cent of control (MTOR (human)): 100%; kinase still bound, per cent of control (NEK11 (human)): 100%; kinase still bound, per cent of control (NEK3 (human)): 84%; kinase still bound, per cent of control (NEK7 (human)): 82%; kinase still bound, per cent of control (NUAK2 (human)): 67%; kinase still bound, per cent of control (PAK3 (human)): 72%; kinase still bound, per cent of control (PAK4 (human)): 74%; kinase still bound, per cent of control (PHKG2 (human)): 100%; kinase still bound, per cent of control (PIP5K1C (human)): 29%; kinase still bound, per cent of control (PRKG2 (human)): 91%; kinase still bound, per cent of control (RPS6KA2 KD1 (human)): 51%; kinase still bound, per cent of control (RPS6KA6 KD1 (human)): 75%; kinase still bound, per cent of control (SIK3 (human)): 88%; kinase still bound, per cent of control (STK25 (human)): 97%; kinase still bound, per cent of control (STK39 (human)): 100%; kinase still bound, per cent of control (SYK (human)): 84%; kinase still bound, per cent of control (TLK2 (human)): 100%; kinase still bound, per cent of control (TNNI3K (human)): 100%; kinase still bound, per cent of control (ULK2 (human)): 88%
